Reference: US20250127772A1, “SPECIFIC TETRADENTATE COPPER CHELATORS FOR THE TREATMENT OF WILSON'S DISEASE” (GUANGDONG UNIVERSITY OF TECHNOLOGY, priority 2023, published 2025)
“And” between values parts separate entries of the source, which are not always exact repeats. Identical values can stand only once.

Tests used:
[1] = oral administration in adults, WD treatment; cited from earlier work
[2] = test system: homozygous toxic-milk mouse model (TX model); type: in vivo; conditions: TX mice
From the text: The selected drug-candidate TDMQ20 has been evaluated on the homozygous toxic-milk mouse model (TX model), a regular murine model of Wilson disease, suitable for evaluation of drug-candidates (for a review, see E. Reed et al., J. Neurochem., 146, 356-373, 2018). TX mice are bearing a naturally occurring point mutation on ATP7B resulting in a methionine changed for a valine, that causes the loss of copper transportation by this protein. C57BL/6 mice have no mutation on ATP7B and were used as control mice in the evaluation of TDMQ20. TX mice were provided by Sun Yat-Sen University (Guangzhou) and C57BL/6 mice by the Guangdong experimental animal center (Guangzhou) and all experiments were performed according to protocols approved by the Welfare Laboratory Animals Committee of the Guangdong University of Technology (approval n° GDUTXS2022083 dated on 3 Aug. 2022), in the framework of the 3 Rs principle.
[…] TX mice (WD) and 8-week-old C57BL/6 mice (Control) were used. TX mice (as WD, TDMQ-L, TDMQ-M, TDMQ-H groups, respectively) received the drug TDMQ20 by intragastric gavage twice a day for 14 consecutive days (at 0, 12.5, 25.0, 50.0 mg/kg in NaCl 0.9%). On the same schedule, C57BL/6 mice (as control group) received NaCl 0.9%. Treatment of WD mice with DPA (200 mg/kg) was used as comparison (DPA group). Six groups of 6 mice were used.
At the end of the treatment period, mice (10-week old) were placed in metabolic cages for 12 h in order to collect urine and feces. At the end of this 12 h-period, mice were anesthetized using 2.5% Avertin diluted in 0.9% NaCl at a dose of […] body weight and sacrificed. Cardiac blood was collected and left at room temperature for 30 minutes before centrifugation at 4° C. at 3000 r/min for 10 minutes to obtain serum samples. During this 30-min period, liver, kidney, brain and serum were also collected. Copper concentrations in urine and feces, serum, liver, kidney and brain were determined by inductively coupled plasma mass spectrometry (ICP-MS). Data analysis was carried out using SPSS Statistics software (version 26). Data are provided as mean values±standard error of the mean (SEM). Statistical analyses were performed using one-way ANOVA for liver, feces and urine, and by non-parametric test for serum, kidney, and brain. Differences with p>0.05 were considered as no significance (ns), * p<0.05, ** p<0.01, and *** p<0.001, n=6. Graph presentations were drawn with Prism GraphPad 8.0.2.

[3] = DPA 200 mg/kg/day gavage 14 days, mean of 6 mice ± SEM

Compound	adverse effects observed with time [1]	copper concentration in serum versus untreated WD mice ([2]; DPA 200 mg/kg/day)	Cu content Brain [2, 3]	Cu content Feces [2, 3]	Cu content Kidney [2, 3]	Cu content Liver [2, 3]	Cu content Serum [2, 3]	Cu content Urine [2, 3]
NCCNCCNCCN [trientine, triethylene-tetramine]	bone marrow depression, anemia, skin rash and hemorrhagic gastritis	–	–	–	–	–	–	–
CC(C)(S)[C@@H](N)C(=O)O [DPA, D-penicillamine, reference compound]	nephrotoxicity, aplasia, retinitis and neurological deterioration	not significantly higher	3.7 ± 0.3 mg/kg	96 ± 7 mg/kg	5.4 ± 0.3 mg/kg	265 mg/kg and 265 ± 9 mg/kg	0.39 ± 0.03 mg/L	2.8 ± 0.2 mg/L
